Consider 19 molecules from patent publication US20230011869A1 (Hoffmann-La Roche Inc., priority 2018, published 2023).

Molecules are shown by their SMILES. Where a name gives a salt, the structure may show the parent alone.

One test has as its system Acinetobacter baumannii ATCC17978. Nature of the test: Antimicrobial susceptibility testing: 90% growth inhibitory concentration (IC90) determination, Iso-Sensitest broth. In kind it is cell-based. To be noted: 90% growth inhibitory concentration, Acinetobacter baumannii ATCC17978, Iso-Sensitest broth, OD 600 nm over 16 h; read-out: ATCC17978 IC90. In short, it runs like this:
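A. baumannii ATCC17978 grown in Iso-Sensitest broth across 10 compound concentrations at 35±2 °C.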
Regarding `COc1ccc(-c2cnc3c(Nc4ccc(C(=O)N5CCC(C(=O)N6C[C@H](O)[C@@H](O)[C@H](O)[C@H]6CO)CC5)c(C)c4)nccn23)c(F)c1F` [Example 566, (1-(4-((3-(2,3-difluoro-4-methoxyphenyl)imidazo[1,2-a]pyrazin-8-yl)amino)-2-methylbenzoyl)piperidin-4-yl)((2R,3R,4R,5S)-3,4,5-trihydroxy-2-(hydroxymethyl)piperidin-1-yl)methanone], the IC90 amounted to 370 nM. For `COc1ccc(-c2cnc3c(Nc4ccc(C(=O)N5CCC(C(=O)NCC(O)CN6CCCC6)CC5)c(C)c4)nccn23)cc1F` (stereo not shown) [Example 568, 1-(4-((3-(3-fluoro-4-methoxyphenyl)imidazo[1,2-a]pyrazin-8-yl)amino)-2-methylbenzoyl)-N-(2-hydroxy-3-(pyrrolidin-1-yl)propyl)piperidine-4-carboxamide], the IC90 was determined as 229 nM.

Still in this test, the particulars now being: Acinetobacter baumannii, ATCC17978, 16 h, read-out: ATCC17978 IC90, 90% growth inhibitory concentration, Acinetobacter baumannii ATCC17978, Iso-Sensitest broth, OD 600 nm over 16 h.
For the molecule `Cc1cc(Nc2nccn3c(-c4ccc(O[C@H](C)C#N)c(F)c4F)cnc23)ccc1C(=O)N1CCN(C(=O)C2(O)CCNCC2)CC1` [Example 560, (2R)-2-[2,3-difluoro-4-[8-[4-[4-(4-hydroxypiperidine-4-carbonyl)piperazine-1-carbonyl]-3-methyl-anilino]imidazo[1,2-a]pyrazin-3-yl]phenoxy]propanenitrile formate], the IC90 worked out at 746 nM. For `COc1ccc(-c2cnc3c(Nc4ccc(C(=O)N5CCN(C(=O)[C@@H]6C[C@@H](OC(=O)[C@@H](N)CCCCN)CN6)CC5)c(C)c4)nccn23)c(F)c1F` [Example 561, [(3R,5S)-5-[4-[4-[[3-(2,3-difluoro-4-methoxy-phenyl)imidazo[1,2-a]pyrazin-8-yl]amino]-2-methyl-benzoyl]piperazine-1-carbonyl]pyrrolidin-3-yl] (2S)-2,6-diaminohexanoate formate], the IC90 is 123 nM. `COc1ccc(-c2cnc3c(Nc4ccc(C(=O)N5CCN(C(=O)[C@@H]6C[C@@H](OC(=O)CN)CN6)CC5)c(C)c4)nccn23)c(F)c1F` [Example 562, [(3R,5S)-5-[4-[4-[[3-(2,3-difluoro-4-methoxy-phenyl)imidazo[1,2-a]pyrazin-8-yl]amino]-2-methyl-benzoyl]piperazine-1-carbonyl]pyrrolidin-3-yl]2-aminoacetate formate]: the IC90 turned out to be 112 nM. Same read-out and setting: for `COc1ccc(-c2cnc3c(Nc4ccc(C(=O)N5CCN(C(=O)[C@@H]6C[C@@H](OC(=O)[C@@H](N)CO)CN6)CC5)c(C)c4)nccn23)c(F)c1F` [Example 563, [(3R,5S)-5-[4-[4-[[3-(2,3-difluoro-4-methoxy-phenyl)imidazo[1,2-a]pyrazin-8-yl]amino]-2-methyl-benzoyl]piperazine-1-carbonyl]pyrrolidin-3-yl] (2S)-2-amino-3-hydroxy-propanoate formate] the value was 135 nM; for `CCC(C#N)Oc1ccc(-c2cnc3c(Nc4ccc(C(=O)N5CCC(CN)CC5)c(C)c4)nccn23)c(F)c1F` (stereo not shown) [Example 564, 2-(4-(8-((4-(4-(aminomethyl)piperidine-1-carbonyl)-3-methylphenyl)amino)imidazo [1,2-a]pyrazin-3-yl)-2,3-difluorophenoxy)butanenitrile formate], 969 nM. As to `COc1ccc(-c2cnc3c(Nc4ccc(C(=O)N5CCN(C(=O)[C@@H]6C[C@@H](OC(=O)[C@@H](N)CCC(N)=O)CN6)CC5)c(C)c4)nccn23)c(F)c1F` [Example 565, [(3R,5S)-5-[4-[4-[[3-(2,3-difluoro-4-methoxy-phenyl)imidazo[1,2-a]pyrazin-8-yl]amino]-2-methyl-benzoyl]piperazine-1-carbonyl]pyrrolidin-3-yl] (2S)-2,5-diamino-5-oxo-pentanoate formate], the IC90 worked out at 109 nM. In the case of `Cc1cc(Nc2nccn3c(-c4ccc(O[C@H](C)C#N)c(F)c4F)cnc23)ccc1C(=O)N1CCN(C(=O)[C@@H]2C[C@](C)(O)CN2)CC1` [Example 567, (2R)-2-[2,3-difluoro-4-[8-[4-[4-[(2S,4S)-4-hydroxy-4-methyl-pyrrolidine-2-carbonyl]piperazine-1-carbonyl]-3-methyl-anilino]imidazo[1,2-a]pyrazin-3-yl]phenoxy]propanenitrile formate], the IC90 is 386 nM.

In a further test the test system is Acinetobacter baumannii ATCC17961. Described as above. In kind it is cell-based. To be noted: Acinetobacter baumannii, ATCC17961, 16 h, 90% growth inhibitory concentration, Acinetobacter baumannii ATCC17961, Iso-Sensitest broth, OD 600 nm over 16 h; read-out: ATCC17961 IC90. Here is the method:
Antimicrobial Susceptibility Testing:
90% Growth Inhibitory Concentration (IC90) Determination
The in vitro antimicrobial activity of the compounds was determined according to the following procedure:
The assay used a 10-points Iso-Sensitest broth medium to measure quantitatively the in vitro activity of the compounds against Acinetobacter baumannii ATCC17978 and Acinetobacter baumannii ATCC17961.
Stock compounds in DMSO were serially twofold diluted (e.g. range from 50 to 0.097 μM final concentration) in 384 wells microtiter plates and inoculated with 49 μl the bacterial suspension in Iso-Sensitest medium to have a final cell concentration of 5×10^(5) CFU/ml in a final volume/well of 50 ul/well. Microtiter plates were incubated at 35±2° C.
Bacterial cell growth was determined with the measurement of optical density at λ=600 nm each 20 minutes over a time course of 16 h. Growth inhibition was calculated during the logarithmic growth of the bacterial cells with determination of the concentration inhibiting 50% (IC50) and 90% (IC90) of the growth.
Table 1 provides the 90% growth inhibitory concentrations (IC90) in micromoles per liter of the compounds of present invention obtained against the strain Acinetobacter baumannii ATCC17978 and Acinetobacter baumannii ATCC17961.
As to `COc1ccc(-c2cnc3c(Nc4ccc(C(=O)N5CCN(C(=O)[C@H]6NC[C@H]7C[C@H]76)CC5)c(C)c4)nccn23)c(F)c1F` (racemic) [Example 82, (4-((1R,2S,5S)-3-azabicyclo[3.1.0]hexane-2-carbonyl)piperazin-1-yl)(4-((3-(2,3-difluoro-4-methoxyphenyl)imidazo[1,2-a]pyrazin-8-yl)amino)-2-methylphenyl)methanone hydrochloride], the IC90 was found to be 98 nM. Same read-out and setting: for `Cc1cc(Nc2nccn3c(-c4ccc(OC(F)F)cc4)cnc23)ccc1C(=O)N1CCN(C(=O)N[C@@H]2CNC[C@H]2O)CC1` (racemic) [Example 170, 4-[4-[[3-[4-(difluoromethoxy)phenyl]imidazo[1,2-a]pyrazin-8-yl]amino]-2-methyl-benzoyl]-N-[rac-(3R,4R)-4-hydroxypyrrolidin-3-yl]piperazine-1-carboxamide hydrochloride] the value was 35 nM. With `COc1ccc(-c2cnc3c(Nc4ccc(C(=O)N5CCN(C(=O)[C@H]6C[C@H](O)CN6)CC5)c(C)c4)nccn23)c(F)c1F` (racemic) [Example 228, [4-[[3-(2,3-difluoro-4-methoxy-phenyl)imidazo[1,2-a]pyrazin-8-yl]amino]-2-methyl-phenyl]-[4-[rac-(2R,4S)-4-hydroxy-pyrrolidine-2-carbonyl]piperazin-1-yl]methanone], the IC90 was found to be 104 nM. The same measure, in the same setting: for `COc1ccc(-c2cnc3c(Nc4ccc(C(=O)NC5CCC(NC(=O)[C@H]6C[C@H](O)CN6)C5)c(C)c4)nccn23)c(F)c1F` (mixture of isomers) [Example 458, rac-(2R,4S)-N-[3-[[4-[[3-(2,3-difluoro-4-methoxyphenyl)imidazo[1,2-a]pyrazin-8-yl]amino]-2-methylbenzoyl]amino]cyclo-pentyl]-4-hydroxypyrrolidine-2-carboxamide] the value was 81 nM; for `Cc1cc(Nc2nccn3c(-c4ccc(OCC#N)c(F)c4Cl)cnc23)ccc1C(=O)N1CCN(C(=O)[C@@H]2CCNC[C@@H]2O)CC1` (relative stereo) [Example 223, 2-[3-chloro-2-fluoro-4-[8-[4-[4-[(3R,4R)-3-hydroxypiperidine-4-carbonyl]piperazine-1-carbonyl]-3-methyl-anilino]imidazo[1,2-a]pyrazin-3-yl]phenoxy] acetonitrile formate], 47 nM; for `COc1ccc(-c2cnc3c(Nc4ccc(C(=O)N5CCN(C(=O)[C@]6(O)CNCC[C@H]6O)CC5)c(C)c4)nccn23)c(F)c1F` (relative stereo) [Example 236, rel-(4-(4-((3-(2,3-difluoro-4-methoxyphenyl)imidazo[1,2-a]pyrazin-8-yl)amino)-2-methylbenzoyl)piperazin-1-yl)((3R,4S)-3,4-dihydroxypiperidin-3-yl)methanone], 82 nM.

As for `COc1ccc(-c2cnc3c(Nc4ccc(C(=O)N5CCN(C(=O)[C@]67CNCC[C@H]6OC(C)(C)O7)CC5)c(C)c4)nccn23)c(F)c1F` (stereo in doubt) [Example 577, rel-(4-(4-((3-(2,3-difluoro-4-methoxyphenyl)imidazo[1,2-a]pyrazin-8-yl)amino)-2-methylbenzoyl)piperazin-1-yl)((3aR,7aS)-2,2-dimethyltetrahydro-[1,3]dioxolo[4,5-c]pyridin-3a(4H)-yl)methanone], the IC90 worked out at 330 nM. Take `COc1ccc(-c2cnc3c(Nc4ccc(C(=O)N5CCN(C(=O)[C@@]67CNCC[C@@H]6OC(C)(C)O7)CC5)c(C)c4)nccn23)c(F)c1F` (stereo in doubt) [Example 578, rel-(4-(4-((3-(2,3-difluoro-4-methoxyphenyl)imidazo[1,2-a]pyrazin-8-yl)amino)-2-methylbenzoyl)piperazin-1-yl)((3aR,7aS)-2,2-dimethyltetrahydro-[1,3]dioxolo[4,5-c]pyridin-3a(4H)-yl)methanone]: the IC90 was 649 nM. Same read-out and setting: for `COc1ccc(-c2cnc3c(Nc4ccc(C(=O)N5CCC(CN)CC5)c(C)c4)nccn23)cc1` [Example 19, (4-(aminomethyl)piperidin-1-yl)(4-((3-(4-methoxyphenyl)imidazo[1,2-a]pyrazin-8-yl)amino)-2-methylphenyl)methanone hydrochloride] the value was 82 nM.

Staying with this test, now noted: Acinetobacter baumannii, ATCC17961, 16 h, read-out: ATCC17961 IC90.
`COc1cc(Nc2nccn3c(-c4ccc(OC)c(F)c4F)cnc23)ccc1C(=O)N1CCN(C(=O)[C@H]2C[C@H](O)CN2)CC1` (stereo in doubt) [Example 586, (4-(4-((3-(2,3-difluoro-4-methoxyphenyl)imidazo[1,2-a]pyrazin-8-yl)amino)-2-methoxybenzoyl)piperazin-1-yl)((2R,4S)-4-hydroxypyrrolidin-2-yl)methanone formate]: the IC90 turned out to be 312 nM.
